Data from patent US12686673B2 (Blueprint Medicines Corporation, priority 2020, dated 2026).
Structures can show the parent of a compound that is named as a salt. Where two headings read alike, the source gives them in different places.

Key:
Format in all cases: cell-based
[1] = target: EGFR (A767_dupASV) expressing Ba/F3 stable cell line (Homo sapiens, UniProt P00533, DUP767-769, cells depend on it); assay: Cellular proliferation (Alamar Blue) assay, EGFR A767_dupASV Ba/F3; details: 72 hr, read-out: A767 IC50
How it was run: (§1)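 Proliferation of mutant-dependent Ba/F3 lines is measured by Alamar Blue reduction over 3 hours, following a 72 hr incubation with test compound spanning 10-0.0005 μM final in threefold dilutions. Cells go in at 15,000 per well in RPMI containing 10% FBS the day before dosing.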

[2] = target: EGFR (H773insNPH) expressing Ba/F3 stable cell line (Homo sapiens, UniProt P00533, DUP771-773, cells depend on it); assay: Cellular proliferation (Alamar Blue) assay, EGFR H773insNPH Ba/F3; details: 72 hr, read-out: NPH IC50
How it was run: as §1

A431 cells = assay: Cellular proliferation (Alamar Blue) assay, A431; details: Homo sapiens
[3] = target: EGFR(D770_N771insSVD) expressing Ba/F3 stable cell line (Homo sapiens, UniProt P00533, DUP768-770, cells depend on it); assay: Cellular proliferation (Alamar Blue) assay, EGFR D770_N771insSVD Ba/F3; details: 72 hr, read-out: D770 IC50
How it was run: as §1

[4] = target: HER2 (A775_G776insYVMA) expressing Ba/F3 stable cell line (Homo sapiens, UniProt P04626, DUP772-775, cells depend on it); assay: Cellular proliferation (Alamar Blue) assay, HER2 A775_G776insYVMA Ba/F3; details: 72 hr, read-out: YVMA IC50
How it was run: as §1

[5] = A-431, A431 cells, Alamar Blue, 72 hr, read-out: A431 IC50
[6] = A-431, A431 cells, 72 hr, Alamar Blue, read-out: A431 IC50

EGFR (A767_dupASV) expressing Ba/F3 stable cell line, sequence (P00533 with tags, fused parts or gaps DUP767-769): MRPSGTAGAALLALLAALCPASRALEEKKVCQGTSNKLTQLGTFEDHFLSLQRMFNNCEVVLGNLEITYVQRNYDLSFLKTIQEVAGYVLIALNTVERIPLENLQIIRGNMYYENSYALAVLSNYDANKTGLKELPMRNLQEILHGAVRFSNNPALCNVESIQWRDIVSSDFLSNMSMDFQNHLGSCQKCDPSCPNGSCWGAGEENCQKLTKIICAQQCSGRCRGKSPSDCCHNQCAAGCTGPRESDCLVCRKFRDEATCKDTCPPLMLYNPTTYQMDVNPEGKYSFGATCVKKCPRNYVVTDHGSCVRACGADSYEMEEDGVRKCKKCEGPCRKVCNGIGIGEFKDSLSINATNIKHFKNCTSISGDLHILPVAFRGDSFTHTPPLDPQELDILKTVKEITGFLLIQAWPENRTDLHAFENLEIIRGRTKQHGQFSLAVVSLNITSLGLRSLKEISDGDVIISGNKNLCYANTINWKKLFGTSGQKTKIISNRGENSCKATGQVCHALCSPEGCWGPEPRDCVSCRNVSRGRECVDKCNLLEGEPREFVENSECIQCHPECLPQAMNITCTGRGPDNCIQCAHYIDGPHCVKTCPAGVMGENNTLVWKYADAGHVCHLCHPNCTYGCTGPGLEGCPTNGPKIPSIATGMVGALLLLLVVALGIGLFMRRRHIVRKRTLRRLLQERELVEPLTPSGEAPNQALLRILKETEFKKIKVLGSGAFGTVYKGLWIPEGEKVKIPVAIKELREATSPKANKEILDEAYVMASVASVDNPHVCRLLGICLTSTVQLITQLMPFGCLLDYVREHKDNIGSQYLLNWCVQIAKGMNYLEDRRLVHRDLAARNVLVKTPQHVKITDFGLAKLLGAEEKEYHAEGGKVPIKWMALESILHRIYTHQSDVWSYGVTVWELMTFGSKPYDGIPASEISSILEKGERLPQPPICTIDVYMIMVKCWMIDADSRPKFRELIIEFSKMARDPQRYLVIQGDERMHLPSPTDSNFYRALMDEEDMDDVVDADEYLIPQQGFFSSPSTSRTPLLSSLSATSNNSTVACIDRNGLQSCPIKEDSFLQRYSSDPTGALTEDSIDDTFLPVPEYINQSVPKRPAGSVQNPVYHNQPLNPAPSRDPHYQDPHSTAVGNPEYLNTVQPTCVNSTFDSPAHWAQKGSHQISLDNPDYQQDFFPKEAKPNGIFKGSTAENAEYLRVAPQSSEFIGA
EGFR (H773insNPH) expressing Ba/F3 stable cell line, sequence (P00533 with tags, fused parts or gaps DUP771-773): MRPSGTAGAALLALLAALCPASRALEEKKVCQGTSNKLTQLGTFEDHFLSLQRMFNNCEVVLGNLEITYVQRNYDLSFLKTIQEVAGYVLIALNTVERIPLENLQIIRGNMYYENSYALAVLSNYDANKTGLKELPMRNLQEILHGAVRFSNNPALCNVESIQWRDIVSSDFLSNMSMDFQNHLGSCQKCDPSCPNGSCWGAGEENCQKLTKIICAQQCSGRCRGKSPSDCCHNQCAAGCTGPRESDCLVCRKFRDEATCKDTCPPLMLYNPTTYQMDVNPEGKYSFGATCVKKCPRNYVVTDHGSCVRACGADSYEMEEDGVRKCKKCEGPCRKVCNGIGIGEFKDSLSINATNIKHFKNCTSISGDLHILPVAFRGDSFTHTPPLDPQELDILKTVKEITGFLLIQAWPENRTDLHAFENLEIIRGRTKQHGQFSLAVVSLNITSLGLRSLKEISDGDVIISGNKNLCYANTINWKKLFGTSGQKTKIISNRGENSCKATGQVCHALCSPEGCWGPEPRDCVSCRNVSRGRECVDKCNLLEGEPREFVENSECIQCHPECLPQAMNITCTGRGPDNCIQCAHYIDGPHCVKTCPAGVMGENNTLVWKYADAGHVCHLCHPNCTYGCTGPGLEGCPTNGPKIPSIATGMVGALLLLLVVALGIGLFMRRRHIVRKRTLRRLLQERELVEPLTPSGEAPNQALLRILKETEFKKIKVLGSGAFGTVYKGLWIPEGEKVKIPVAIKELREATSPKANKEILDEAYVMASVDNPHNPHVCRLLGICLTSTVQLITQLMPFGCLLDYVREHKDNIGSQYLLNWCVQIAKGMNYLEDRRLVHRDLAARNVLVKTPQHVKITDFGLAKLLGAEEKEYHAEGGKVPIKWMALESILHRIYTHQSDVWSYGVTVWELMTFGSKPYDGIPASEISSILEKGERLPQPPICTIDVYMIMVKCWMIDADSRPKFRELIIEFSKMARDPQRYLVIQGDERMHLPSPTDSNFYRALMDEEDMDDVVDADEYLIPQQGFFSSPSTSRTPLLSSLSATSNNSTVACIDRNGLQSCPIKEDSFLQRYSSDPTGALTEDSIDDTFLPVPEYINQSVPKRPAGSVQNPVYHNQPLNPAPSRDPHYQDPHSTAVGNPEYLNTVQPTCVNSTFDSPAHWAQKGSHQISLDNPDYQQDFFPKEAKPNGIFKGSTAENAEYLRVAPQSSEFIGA
EGFR(D770_N771insSVD) expressing Ba/F3 stable cell line, sequence (P00533 with tags, fused parts or gaps DUP768-770): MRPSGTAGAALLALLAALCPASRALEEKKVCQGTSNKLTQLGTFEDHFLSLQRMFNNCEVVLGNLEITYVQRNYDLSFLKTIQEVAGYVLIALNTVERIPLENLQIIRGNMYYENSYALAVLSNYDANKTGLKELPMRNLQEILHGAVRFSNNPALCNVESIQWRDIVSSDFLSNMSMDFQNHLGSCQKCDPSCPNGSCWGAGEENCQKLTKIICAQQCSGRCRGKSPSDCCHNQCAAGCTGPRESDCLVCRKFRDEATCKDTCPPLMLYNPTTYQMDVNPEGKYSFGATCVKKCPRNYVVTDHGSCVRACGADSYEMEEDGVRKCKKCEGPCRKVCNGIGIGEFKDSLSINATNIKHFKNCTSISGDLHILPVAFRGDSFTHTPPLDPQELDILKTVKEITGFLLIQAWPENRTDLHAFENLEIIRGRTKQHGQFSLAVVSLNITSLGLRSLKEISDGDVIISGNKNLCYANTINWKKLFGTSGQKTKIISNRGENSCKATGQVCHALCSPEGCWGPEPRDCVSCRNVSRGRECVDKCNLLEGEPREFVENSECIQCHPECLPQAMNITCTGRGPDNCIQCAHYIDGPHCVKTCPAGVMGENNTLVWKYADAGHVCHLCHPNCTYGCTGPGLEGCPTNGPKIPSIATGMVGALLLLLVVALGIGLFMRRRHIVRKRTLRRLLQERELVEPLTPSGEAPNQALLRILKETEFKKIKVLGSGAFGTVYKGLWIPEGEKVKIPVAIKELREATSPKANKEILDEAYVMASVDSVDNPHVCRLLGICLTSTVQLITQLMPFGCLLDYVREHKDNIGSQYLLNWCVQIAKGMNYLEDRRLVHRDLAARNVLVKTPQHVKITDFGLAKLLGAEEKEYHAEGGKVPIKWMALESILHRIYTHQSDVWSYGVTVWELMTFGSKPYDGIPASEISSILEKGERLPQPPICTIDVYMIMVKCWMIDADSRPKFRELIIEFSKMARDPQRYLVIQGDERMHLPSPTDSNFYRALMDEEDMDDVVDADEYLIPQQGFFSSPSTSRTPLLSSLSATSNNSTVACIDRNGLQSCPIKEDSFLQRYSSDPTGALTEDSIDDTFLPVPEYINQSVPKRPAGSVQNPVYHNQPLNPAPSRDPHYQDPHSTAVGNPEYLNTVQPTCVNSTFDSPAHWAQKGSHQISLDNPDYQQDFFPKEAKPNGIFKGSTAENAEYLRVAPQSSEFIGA
HER2 (A775_G776insYVMA) expressing Ba/F3 stable cell line, sequence (P04626 with tags, fused parts or gaps DUP772-775): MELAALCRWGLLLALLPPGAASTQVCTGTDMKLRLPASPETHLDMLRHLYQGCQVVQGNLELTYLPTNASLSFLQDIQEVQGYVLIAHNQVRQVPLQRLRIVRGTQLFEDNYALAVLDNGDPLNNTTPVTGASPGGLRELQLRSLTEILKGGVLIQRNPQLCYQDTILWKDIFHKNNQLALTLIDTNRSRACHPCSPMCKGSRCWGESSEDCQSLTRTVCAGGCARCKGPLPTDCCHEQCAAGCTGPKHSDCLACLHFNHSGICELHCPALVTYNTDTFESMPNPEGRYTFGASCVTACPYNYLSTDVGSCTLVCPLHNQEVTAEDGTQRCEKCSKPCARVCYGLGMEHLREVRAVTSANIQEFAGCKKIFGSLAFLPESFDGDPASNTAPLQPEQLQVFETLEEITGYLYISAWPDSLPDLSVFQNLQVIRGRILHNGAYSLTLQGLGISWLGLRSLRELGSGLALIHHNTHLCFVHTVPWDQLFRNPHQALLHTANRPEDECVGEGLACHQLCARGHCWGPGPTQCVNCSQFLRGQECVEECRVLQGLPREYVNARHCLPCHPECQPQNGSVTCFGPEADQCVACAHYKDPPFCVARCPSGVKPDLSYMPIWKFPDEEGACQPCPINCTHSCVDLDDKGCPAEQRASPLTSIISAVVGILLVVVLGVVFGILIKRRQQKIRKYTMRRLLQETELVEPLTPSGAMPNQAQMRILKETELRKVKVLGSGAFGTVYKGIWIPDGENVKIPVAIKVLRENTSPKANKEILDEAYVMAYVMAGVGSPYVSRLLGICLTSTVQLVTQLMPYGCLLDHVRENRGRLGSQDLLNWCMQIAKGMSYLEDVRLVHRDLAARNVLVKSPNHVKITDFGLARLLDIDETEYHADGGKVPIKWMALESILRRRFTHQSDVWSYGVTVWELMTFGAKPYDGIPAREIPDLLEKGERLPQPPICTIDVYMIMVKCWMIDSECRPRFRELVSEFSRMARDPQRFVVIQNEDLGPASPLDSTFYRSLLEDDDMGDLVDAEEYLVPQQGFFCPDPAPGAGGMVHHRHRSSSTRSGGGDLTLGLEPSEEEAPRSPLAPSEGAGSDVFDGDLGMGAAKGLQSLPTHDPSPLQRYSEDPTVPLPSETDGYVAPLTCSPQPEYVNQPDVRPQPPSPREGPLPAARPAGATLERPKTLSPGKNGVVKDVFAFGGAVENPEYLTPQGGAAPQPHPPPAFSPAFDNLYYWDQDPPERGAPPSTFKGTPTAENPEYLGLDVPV

GI50 [1] | GI50 [2] | IC50 (A431 cells; [5]) | GI50 [3] | GI50 [4] | IC50 (A431 cells; [6]) | SMILES | IC50 (A431 cells; A-431, 72 h, read-out: A431 IC50 (nM))
96 nM | 75 nM | 67 nM | 37 nM | 171 nM | – | C=CC(=O)Nc1ccc(F)c(Nc2nc(Nc3cnn(C)c3)ncc2-c2ccc(C(F)F)cc2)c1 [Compound 99, N-(3-((5-(4-(difluoromethyl)phenyl)-2-((1-methyl-1H-pyrazol-4-yl)amino)pyrimidin-4-yl)amino)-4-fluorophenyl)acrylamide] | –
75 nM | 89 nM | 133 nM | 102 nM | 612 nM | – | C=CC(=O)Nc1ccc(F)c(Nc2nc(Nc3cnn(C)c3)ncc2-c2ccc(OC(F)(F)F)cc2)c1 [Compound 92, N-(4-fluoro-3-((2-((1-methyl-1H-pyrazol-4-yl)amino)-5-(4-(trifluoromethoxy)phenyl)pyrimidin-4-yl)amino)phenyl)acrylamide] | –
129 nM | 226 nM | 375 nM | 105 nM | 354 nM | – | C=CC(=O)Nc1cccc(Oc2nc(Nc3cnn(C)c3)ncc2-c2ccc(C(F)(F)F)cc2)c1 [Compound 151, N-(3-((2-((1-methyl-1H-pyrazol-4-yl)amino)-5-(4-(trifluoromethyl)phenyl)pyrimidin-4-yl)oxy)phenyl)acrylamide] | –
70 nM | 101 nM | 122 nM | 37 nM | 38 nM | – | C=CC(=O)Nc1cccc(Nc2nc(Nc3cnn(C)c3)ncc2-c2cncc(C(F)F)c2)c1 [Compound 144, N-(3-((5-(5-(difluoromethyl)pyridin-3-yl)-2-((1-methyl-1H-pyrazol-4-yl)amino)pyrimidin-4-yl)amino)phenyl)acrylamide trifluoroacetate] | –
34 nM | 24 nM | 169 nM | 16 nM | 50 nM | – | C=CC(=O)Nc1cccc(Nc2nc(Nc3cnn(C)c3)ncc2-c2ccc(OC(F)F)cc2)c1 [Compound 142, N-(3-((5-(4-(difluoromethoxy)phenyl)-2-((1-methyl-1H-pyrazol-4-yl)amino)pyrimidin-4-yl)amino)phenyl)acrylamide trifluoroacetate] | –
135 nM | 180 nM | 524 nM | 57 nM | 258 nM | – | C=CC(=O)Nc1cncc(Nc2nc(Nc3cnn(C)c3)ncc2-c2ccc(C(F)(F)F)cc2)c1 [Compound 195, N-(5-((2-((1-methyl-1H-pyrazol-4-yl)amino)-5-(4-(trifluoromethyl)phenyl)pyrimidin-4-yl)amino)pyridin-3-yl)acrylamide] | –
27 nM | 45 nM | 102 nM | 38 nM | 101 nM | – | C=CC(=O)Nc1ccc(F)c(Nc2nc(Nc3cnn(C)c3)ncc2-c2cncc(OC(F)F)c2)c1 [Compound 95, N-(3-((5-(5-(difluoromethoxy)pyridin-3-yl)-2-((1-methyl-1H-pyrazol-4-yl)amino)pyrimidin-4-yl)amino)-4-fluorophenyl)acrylamide] | –

More lines, now with the values behind:

SMILES | GI50 [1] | GI50 [2] | IC50 (A431 cells; [5]) | GI50 [3] | GI50 [4] | IC50 (A431 cells; [6]) | IC50 (A431 cells; A-431, 72 h, read-out: A431 IC50 (nM))
C=CC(=O)Nc1ccc(F)c(Nc2nc(Nc3cnn(CCN(C)C)c3)ncc2-c2ccc(C(F)(F)F)cc2)c1 [Compound 72, N-(3-((2-((1-(2-(dimethylamino)ethyl)-1H-pyrazol-4-yl)amino)-5-(4-(trifluoromethyl)phenyl)pyrimidin-4-yl)amino)-4-fluorophenyl)acrylamide trifluoroacetate] | 108 nM | 95 nM | 80 nM | 99 nM | 129 nM | – | –
C=CC(=O)Nc1ccc(F)c(Nc2nc(Nc3cnn(C)c3)ncc2-c2ccccc2)c1 [Compound 93, N-(4-fluoro-3-((2-((1-methyl-1H-pyrazol-4-yl)amino)-5-phenylpyrimidin-4-yl)amino)phenyl)acrylamide] | 315 nM | 148 nM | > 10000 nM | 121 nM | 465 nM | – | –
[2H]C([2H])=CC(=O)Nc1ccc(F)c(Nc2nc(Nc3cnn(C([2H])([2H])[2H])c3)ncc2-c2ccc(C(F)(F)F)cc2)c1 [Compound 248, N-(4-fluoro-3-((2-((1-(methyl-d3)-1H-pyrazol-4-yl)amino)-5-(4-(trifluoromethyl)phenyl)pyrimidin-4-yl)amino)phenyl)acrylamide-3,3-d2] | 143 nM | 43 nM | – | 109 nM | 250 nM | 222 nM | –
C=CC(=O)Nc1ccc(F)c(Nc2nc(Nc3cnn(C)c3)ncc2-c2ccc(N3CCOCC3)cc2)c1 [Compound 94, N-(4-fluoro-3-((2-((1-methyl-1H-pyrazol-4-yl)amino)-5-(4-morpholinophenyl)pyrimidin-4-yl)amino)phenyl)acrylamide] | 109 nM | 448 nM | > 10000 nM | 542 nM | 1270 nM | – | –
C=CC(=O)Nc1cccc(Oc2nc(Nc3cnn(C)c3)ncc2-c2ccc(C(F)F)nc2)c1 [Compound 187, N-(3-((5-(6-(difluoromethyl)pyridin-3-yl)-2-((1-methyl-1H-pyrazol-4-yl)amino)pyrimidin-4-yl)oxy)phenyl)acrylamide] | 61 nM | 99 nM | 281 nM | 40 nM | 226 nM | – | –
C=CC(=O)Nc1ccc(F)c(Nc2nc(Nc3cnn(C)c3)ncc2-c2cccc(C(F)(F)F)c2)c1 [Compound 89, N-[4-fluoro-3-({2-[(1-methyl-1H-pyrazol-4-yl)amino]-5-[3-(trifluoromethyl)phenyl]pyrimidin-4-yl}amino)phenyl]prop-2-enamide] | 106 nM | 58 nM | 84 nM | 101 nM | 665 nM | – | –
C=CC(=O)Nc1cccc(Oc2nc(Nc3cnn(C)c3)ncc2-c2cncc(F)c2)c1 [Compound 184, N-(3-((5-(5-fluoropyridin-3-yl)-2-((1-methyl-1H-pyrazol-4-yl)amino)pyrimidin-4-yl)oxy)phenyl)acrylamide] | 27 nM | 222 nM | 97 nM | 37 nM | 60 nM | – | –
C=CC(=O)Nc1ccc(F)c(Nc2nc(Nc3cn(CCN(C)C)nc3Cl)ncc2-c2ccc(C(F)(F)F)cc2)c1 [Compound 221, N-(3-((2-((3-chloro-1-(2-(dimethylamino)ethyl)-1H-pyrazol-4-yl)amino)-5-(4-(trifluoromethyl)phenyl)pyrimidin-4-yl)amino)-4-fluorophenyl)acrylamide] | 297 nM | 225 nM | – | 123 nM | 298 nM | 68 nM | –
C=CC(=O)Nc1ccc(F)c(Nc2nc(Nc3cnn(C)c3)ncc2-c2cncc(N(C)C)c2)c1 [Compound 116, N-(3-((5-(5-(dimethylamino)pyridin-3-yl)-2-((1-methyl-1H-pyrazol-4-yl)amino)pyrimidin-4-yl)amino)-4-fluorophenyl)acrylamide trifluoroacetate] | 94 nM | 136 nM | 108 nM | 108 nM | 251 nM | – | –
C=CC(=O)Nc1ccc(F)c(Nc2nc(Nc3cnn(C)c3)ncc2-c2ccc(F)nc2)c1 [Compound 100, N-(4-fluoro-3-((5-(6-fluoropyridin-3-yl)-2-((1-methyl-1H-pyrazol-4-yl)amino)pyrimidin-4-yl)amino)phenyl)acrylamide] | 72 nM | 53 nM | 472 nM | 38 nM | 203 nM | – | –
C=CC(=O)Nc1ccc(F)c(Nc2nc(Nc3cnn(C)c3)ncc2-c2ccc(C(F)(F)F)cc2)c1 [Compound 37, N-(4-fluoro-3-((2-((1-methyl-1H-pyrazol-4-yl)amino)-5-(4-(trifluoromethyl)phenyl)pyrimidin-4-yl)amino)phenyl)acrylamide] | 73 nM | 85 nM | 185 nM | 34 nM | 974 nM | – | –
C=CC(=O)Nc1ccc(F)c(Nc2nc(Nc3cnn(C)c3)ncc2-c2cccnc2)c1 [Compound 84, N-(4-fluoro-3-((2-((1-methyl-1H-pyrazol-4-yl)amino)-5-(pyridin-3-yl)pyrimidin-4-yl)amino)phenyl)acrylamide] | 83 nM | 50 nM | – | 64 nM | 119 nM | – | 191 nM
C=CC(=O)Nc1ccc(F)c(Nc2nc(Nc3cnn(CCN(C)C)c3)ncc2-c2ccc(Br)cc2)c1 [Compound 203, N-(3-((5-(4-bromophenyl)-2-((1-(2-(dimethylamino)ethyl)-1H-pyrazol-4-yl)amino)pyrimidin-4-yl)amino)-4-fluorophenyl)acrylamide] | 100 nM | 107 nM | – | 69 nM | 110 nM | 51 nM | –
C=CC(=O)Nc1ccc(F)c(Nc2nc(Nc3cn(C)nc3Cl)ncc2-c2ccc(C(F)(F)F)cc2)c1 [Compound 112, N-(3-((2-((3-chloro-1-methyl-1H-pyrazol-4-yl)amino)-5-(4-(trifluoromethyl)phenyl)pyrimidin-4-yl)amino)-4-fluorophenyl)acrylamide trifluoroacetate] | 80 nM | 138 nM | 88 nM | 93 nM | 288 nM | – | –
